Experimental data: patent US10611748B2, “Xanthone derivatives for the treatment of hepatitis B virus disease” (Hoffmann-La Roche Inc., priority 2017, dated 2020)

Assays:
[1] = system: extracellular HBsAg level in HBV-infected PHH; test: Cryopreserved primary human hepatocytes (PHH) assay, HBsAg; type: cell-based; conditions: Hepatitis B virus, Hepatocyte, 216 h, read-out: HBsAg IC50
Description: Cryopreserved PHH (BioreclamationIVT, Lot YJM) was thawed at 37° C. and gently transferred into pre-warmed InVitroGRO HT medium (BioreclamationIVT, Cat. S03317). The mixture was centrifuged at 70 relative centrifugal force (RCF) for 3 minutes at RT, and the supernatant was discarded. Pre-warmed InVitroGRO CP medium (BioreclamationIVT, Cat # S03316) was added to the cell pellet to gently re-suspend cells. The cells were seeded at the density of 5.8×10^4 cells per well to collagen I coated 96-well plate (Gibco, Cat. A1142803) with the InVitroGRO CP medium. All plates were incubated at 37° C. with 5% CO2 and 85% humidity.
At 20 hours after plating, the medium was changed to PHH culture medium (Dulbecco's Modified Eagle Medium (DMEM)/F12 (1:1) (Gibco, Cat. 11320-033), 10% fetal bovine serum (Gibco Cat. 10099141), 100 U/mL penicillin, 100 μg/mL streptomycin (Gibco, Cat. 151401-122), 5 ng/mL human epidermal growth factor (Invitrogen Cat. PHG0311L), 20 ng/mL dexamethasone (Sigma, Cat. D4902) and 250 ng/mL human recombinant insulin (Gibco, Cat. 12585-014)). And the cells were incubated at 37° C. with 5% CO2 and 85% humidity for 4 hours. The medium was then changed to pre-warmed PHH culture medium containing 4% polyethylene glycol (PEG) MW8000 (Sigma, Cat. P1458-50ML) and 1% DMSO (Sigma, Cat. D2650). 5.8×10^6 genomic equivalents of HBV were added into the medium.
At 24 hours post-infection, the cells were gently washed with PBS and refreshed with PHH culture medium supplemented with 1% DMSO, and 0.25 mg/mL Matrix gel (Corning, Cat. 356237) at 200 μL per well. All plates were immediately placed in at 37° C. CO2 incubator.
24 hours later, serial dilutions of compounds made with DMSO were further diluted with the same culture medium (PHH culture medium supplemented with 1% DMSO and 0.25 mg/mL Matrix gel as described above) before they were added to the cells to reach desired final compound concentrations and 1% DMSO concentration. The medium containing the compounds were refreshed every three days.
At 9 days post-compound treatment, extracellular HBsAg level were measured with Chemiluminescence Immuno Assay (CLIA) kit (Autobio, HBsAg Quantitative CLIA). Extracellular HBV DNA was extracted by MagNA Pure 96 system (Roche) and then determined by quantitative PCR with the following primers and probe: HBV-Forward Primer (SEQ ID NO:2): […] (5′ to 3′); HBV-Reverse Primer (SEQ ID NO:3): […](5′ to 3′); HBV-Probe: 5′+tetramethylrhodamine+SEQ ID NO:4+black hole quencher 2-3′, wherein SEQ ID NO:4 is […].
HBsAg IC50 and HBV DNA IC50 values were derived from the dose-response curve using 4 parameter logistic curve fit method.

[2] = system: extracellular HBeAg level (surrogate marker for cccDNA) in HepDES19 cells; test: HepDES19 primary screen assay; type: cell-based, HBV; conditions: Hepatitis B virus, 120 h, 5 days compound incubation, HBeAg ELISA
From the text: The assay was employed to primarily screen for novel cccDNA inhibitors. HepDES19 is an engineered cell line which contains a 1.1 unit length HBV genome, and pgRNA transcription from the transgene is controlled by Tetracycline (Tet). In the absence of Tet, pgRNA transcription will be induced, but HBV e antigen (HBeAg) could not be produced from this pgRNA due to the fact that the very short leader sequence before the HBeAg start codondisrupted the start codon. Only after cccDNA is formed, the missing leader sequence and start codon mutation would be restored from the 3′-terminal redundancy of pgRNA, and then HBeAg could be synthesized. Therefore, HBeAg could be used as a surrogate marker for cccDNA (Zhou, T. et al., Antiviral Res(2006), 72(2), 116-124; Guo, H. et al., J. Virol (2007), 81(22), 12472-12484).
HepDES19 cells were seeded at 2×10^6 cells per T150 flask and cultured with the culture medium (Dulbecco's Modified Eagle Medium: Nutrient Mixture F-12 (DMEM:F12, Gibco Cat. 11320-82), 10% Fetal Bovine Serum (FBS, Clontech Cat. 631101), 0.1 mM Non-Essential Amino Acids Solution (NEAA, Gibco Cat. 11140-050), 50 μg/mL Penicillin-Streptomycin (PS, Invitrogen Cat. 15140-163), 500 μg/mL Geneticin (G418, Invitrogen Cat. 10131-027) containing 3 μg/mL Tet (Sigma, Cat. 87128) for 5 days. Cells were then seeded at 4×10^6 cells per T150 in the same culture medium as described above in the absence of Tet for 8 days. Cells were then harvested and frozen at density of 2×10^6 cells per mL. For compound testing, the frozen cells were thawed and seeded into 96-well plates at a density of 6×10^4 cells per well. At 24 hrs after seeding, half log serial dilutions of compounds made with Dimethyl sulfoxide (DMSO, Sigma, Cat. D2650) were further diluted with the same culture medium as described above before they were added to the cells to reach desired final compound concentrations and 1% DMSO concentration. Plates were then incubated at 37° C. for another 5 days before measurement of HBeAg level and cell viability. Extracellular HBeAg level were measured with enzyme-linked immunosorbent assay (ELISA) kit (Shanghai Kehua Diagnostic Medical Products Co., Ltd). Cell viability was assessed using Cell Counting Kit-8 (Donjindo, Cat. CK04-20). IC50 values were derived from the dose-response curve using 4 parameter logistic curve fit method.
The compounds of the present invention were tested for their capacity to inhibit extracellular HBeAg level as described herein.

[3] = system: cccDNA level in HepDES19 cells; test: cccDNA Southern Blot assay; type: cell-based, HBV; conditions: 5 days' compound treatment, Hirt DNA, serial dilutions
Description: HepDES19 cells were seeded at 4×10^6 cells per T150 in the culture medium (Dulbecco's Modified Eagle Medium: Nutrient Mixture F-12 (DMEM:F12, Gibco Cat. 11320-82), 10% Fetal Bovine Serum (FBS, Clontech Cat. 631101), 0.1 mM Non-Essential Amino Acids Solution (NEAA, Gibco Cat. 11140-050), […] Penicillin-Streptomycin (PS, Invitrogen Cat. 15140-163), 500 μg/mL Geneticin (G418, Invitrogen Cat. 10131-027) in the absence of Tet for 8 days. These cells were seeded at the density of 1×10^6 cells per well in 6-well plate. At 24 hrs after seeding, serial dilutions of compounds made with DMSO (Sigma, Cat. D2650) were further diluted with the same culture medium as described above before they were added to the cells to reach desired final compound concentrations and 1% DMSO concentration. After 5 days' compound treatment, the cells growing in one well from 6-well plate were re-suspended with 500 μL re-suspension buffer (50 mM tris[hydroxymethyl]aminomethane pH 7.5), 10 mM ethylenediaminetetraacetic acid (EDTA), 50 μg/mL RNase A (Qiagen, Cat. 158922). 500 μL of 1.2% sodium dodecyl sulfate (SDS) was then added into the re-suspended cells to lyse the cells. After 15 minutes' incubation, 700 μL precipitation buffer (3M cesium chloride, 1M potassium acetate, 0.67M acetic acid) was added and the lysate was incubated at 4° C. for 2 h. The lysate was centrifuged at 15000 revolutions per minute (RPM) at 4° C. for 15 minutes. The supernatant was collected and loaded onto Qiagen miniprep columns (QIAprep spin Mini prep kit, Cat. No. 27016). After centrifugation for 1 minute at 15000 RPM, the column was washed once with 750 µL wash buffer PE from QIAprep spin Mini prep kit. 80 μL of double distilled water was loaded to the columns to elute Hirt DNA.
Hirt DNA of each sample was loaded into 1.2% lx tris-acetate electrophoresis (TAE) agarose gel and separated at 90 voltages for 3 hours. The gel was then treated in 50 mM NaAc—HAc, pH4.2 for 30 min at room temperature (RT), and then denatured by soaking in denaturation buffer (0.5 M sodium hydroxide, 1.5 M sodium chloride) at RT for 30-45 min. The gel was then treated with neutralization buffer (1M tris[hydroxymethyl]aminomethane pH7.4 and 1.5M NaCl) at RT for 30 to 45 min.
The gel was transferred onto a pre-wet Nylon membrane (GE life science, Hybond N+) by capillary transfer method overnight, followed by UV crosslinking. The membrane was transferred into a hybridization tube, then rinsed with double distilled water at 60° C. for 5 mins. 10 mL of hybridization buffer (Lab kits, China) was added, the resulting sample was rotated in hybridization oven at 60° C. for 1 hour. Digoxigenin (DIG)-labelled HBV probe (SEQ ID NO: 1) was denatured at 95° C. for 10 minutes, and then 7 μL of denatured probe was added to the hybridization tube, which was rotated in hybridization oven at 60° C. overnight.
On the second day, the membrane was washed according to the procedure of DIG wash and block buffer set kit (Roche, Cat. 11 585 762 001), and then incubated with 50 mL antibody solution (Antibody anti-Digoxigenin-AP Fab fragment (Roche Cat. 11093274910) diluted in fresh 1× blocking buffer at 1:10,000) for 1 hour. The membrane was washed with 50 mL washing buffer (1× Maleic buffer with 0.3% Tween-20) for 15 minutes twice, and equilibrated with 20 mL detection buffer (0.1M tris[hydroxymethyl]aminomethane pH9.5, 0.1M sodium chloride) for 5 minutes. CDP-Star substrate (Roche, Cat. 12041677001) was added to the membrane for 5 minutes, and then the membrane was scanned by Bio-Rad Visualize Image System (Biorad, ChemiDoc-MP, Serial No. 731BR00916).

Structure (SMILES)	IC50 [1] [µM]	IC50 [2] [µM]	cccDNA level in HepDES19 cells (Southern Blot) [3]
O=C(O)C1CCN(c2ccc3c(=O)c4c(O)ccc(Cl)c4oc3c2)C1 (stereo not shown) [Example 53, 1-(5-chloro-8-hydroxy-9-oxo-xanthen-3-yl)pyrrolidine-3-carboxylic Acid]	8.12	3.43	
O=C(O)C1CCN(c2ccc3c(=O)c4cccc(Br)c4oc3c2)C1 (stereo not shown) [Example 7, 1-(5-bromo-9-oxo-xanthen-3-yl)pyrrolidine-3-carboxylic acid]		3.56	dose-dependently reduced cccDNA level
Cc1ccc(Cl)c2oc3cc(N4CCC(C(=O)O)C4)ccc3c(=O)c12 (stereo not shown) [Example 40, 1-(5-chloro-8-methyl-9-oxo-xanthen-3-yl)pyrrolidine-3-carboxylic Acid]	1.69	1.31	
O=C(O)C1CCN(c2ccc3c(=O)c4c(C(F)(F)F)ccc(Cl)c4oc3c2)C1 (stereo not shown) [Example 67, 1-[5-chloro-9-oxo-8-(trifluoromethyl)xanthen-3-yl]pyrrolidine-3-carboxylic Acid]	1.29	0.39	
O=C(O)C1CCN(c2ccc3c(=O)c4c(F)ccc(Cl)c4oc3c2)C1 (stereo not shown) [Example 66, 1-(5-chloro-8-fluoro-9-oxo-xanthen-3-yl)pyrrolidine-3-carboxylic Acid]	8.48	1.91	
O=C(O)C1CCN(c2cc3oc4c(Cl)cccc4c(=O)c3cc2Cl)C1 (stereo not shown) [Example 43, 1-(2,5-dichloro-9-oxo-xanthen-3-yl)pyrrolidine-3-carboxylic Acid]	8.22	1.11	
Cc1cc2c(=O)c3cccc(Cl)c3oc2cc1N1CCC(C(=O)O)C1 (stereo not shown) [Example 39, 1-(5-chloro-2-methyl-9-oxo-xanthen-3-yl)pyrrolidine-3-carboxylic Acid]	3.18	1.08	
COc1cc(O[C@@H]2O[C@H](CO)[C@@H](O)[C@H](O)[C@H]2O)c2c(=O)c3c(O)ccc(O)c3oc2c1 [Swertianolin, 5,8-dihydroxy-3-methoxy-1-[(2S,3R,4S,5S,6R)-3,4,5-trihydroxy-6-(hydroxymethyl)tetrahydropyran-2-yl]oxy-xanthen-9-one, reference compound]	> 100	> 100	
N#Cc1ccc(Cl)c2oc3cc(N4CCC(C(=O)O)C4)ccc3c(=O)c12 (stereo not shown) [Example 44, 1-(5-chloro-8-cyano-9-oxo-xanthen-3-yl)pyrrolidine-3-carboxylic Acid]	12.4	1.1	
O=C(O)C1CCN(c2cc3oc4c(Cl)cccc4c(=O)c3cc2F)C1 (stereo not shown) [Example 42, 1-(5-chloro-2-fluoro-9-oxo-xanthen-3-yl)pyrrolidine-3-carboxylic Acid]	7.74	1.17	
O=C(O)C1CCN(c2ccc3c(=O)c4cccc(Cl)c4sc3c2)C1 (stereo not shown) [Example 6, 1-(5-chloro-9-oxo-thioxanthen-3-yl)pyrrolidine-3-carboxylic acid]	5.06	4.94	
O=C(O)C1CCN(c2cc3oc4c(Cl)cccc4c(=O)c3cn2)C1 (stereo not shown) [Example 41, 1-(6-chloro-10-oxo-chromeno[3,2-c]pyridin-3-yl)pyrrolidine-3-carboxylic Acid]	8.08	4.04	
O=c1c2ccc(N3CCC4(CCNC4)C3)cc2oc2c(F)cccc12 (stereo not shown) [Example 48, 3-(2,7-diazaspiro[4.4]nonan-2-yl)-5-fluoro-xanthen-9-one]		5.48	
